Assay results from patent US20070135399A1, “Heteroaromatic sulphonamide prodrugs” (priority 2005, published 2007).
Like-named read-outs stand apart in the source and are kept apart here.

Tests used:
[1] = molecular target: human carboanhydrase II (Homo sapiens, UniProt P00918); assay: Carboanhydrase inhibition, photometric, nitrophenyl acetate conversion (CA II); assay type: biochemical
From the text: (§1) a) Carboanhydrase Inhibition
(§2) Photometric determination of the inhibition of human carboanhydrase I or II by sulphonamides or sulphamates on microtitre plates with the aid of the enzymatic conversion of nitrophenyl acetate with a colour change from colourless to yellow.

[2] = molecular target: human carboanhydrase I (Homo sapiens, UniProt P00915); assay: Carboanhydrase inhibition, photometric, nitrophenyl acetate conversion (CA I); assay type: biochemical
Sequence of human carboanhydrase I (P00915 whole entry): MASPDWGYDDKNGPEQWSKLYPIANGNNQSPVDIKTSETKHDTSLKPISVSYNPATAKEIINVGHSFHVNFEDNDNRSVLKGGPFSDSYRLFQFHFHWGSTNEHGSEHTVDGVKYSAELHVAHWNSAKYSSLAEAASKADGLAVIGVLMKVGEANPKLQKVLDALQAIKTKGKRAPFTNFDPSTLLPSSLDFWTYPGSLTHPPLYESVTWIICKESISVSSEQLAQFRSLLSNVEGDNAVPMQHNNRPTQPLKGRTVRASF
From the text: as §1, §2

[3] = Blood-plasma concentration ratio in heparinized rat blood
Description: b) Blood-plasma concentration ratio—test principle and experimental description:
The blood-plasma ratio is calculated from the measured concentration and the theoretical concentration.

[4] = human carboanhydrase II, read-out: CA II IC50
[5] = human carboanhydrase I, read-out: CA I IC50
[6] = freshly obtained heparinized whole blood

SMILES | IC50 [1, 4] [nM] | IC50 [2, 5] [nM] | blood plasma ratio [3, 6] | IC50 [1] [nM] | blood plasma ratio [3] | IC50 [2] [nM] | Blood/plasma ratio
C[C@]12CC[C@@H]3c4ccc(O)cc4CC[C@H]3[C@@H]1CC[C@@H]2OC(=O)c1ccc(S(N)(=O)=O)nc1 [Compound 1, 3-Hydroxyoestra-1,3,5(10)-trien-17β-yl 6′-sulphamoylnicotinate] | 31 | 2900 | – | – | – | – | –
C[C@]12CC[C@@H]3c4ccc(O)cc4CC[C@H]3[C@@H]1CC[C@@H]2OC(=O)c1cncc(S(N)(=O)=O)c1 [Compound 2, 3-Hydroxyoestra-1,3,5(10)-trien-17β-yl 5′-sulphamoylnicotinate] | 160 | 2100 | 2 | – | – | – | –
CCc1sc(S(N)(=O)=O)cc1C(=O)O[C@H]1CC[C@H]2[C@@H]3CCc4cc(O)ccc4[C@H]3CC[C@]12C [Compound 3, 3-Hydroxyoestra-1,3,5(10)-trien-17β-yl 2′-ethyl-5′-sulphamoylthiophene-3′-carboxylate] | 42 | 3400 | 1.8 | – | – | – | –
C[C@]12CC[C@@H]3c4ccc(O)cc4CC[C@H]3[C@@H]1CC[C@@H]2OC(=O)c1cc(S(N)(=O)=O)sc1Br [Compound 4, 3-Hydroxyoestra-1,3,5(10)-trien-17β-yl 2′-bromo-5′-sulphamoylthiophene-3′-carboxylate] | 47 | 3300 | 9.5 | – | – | – | –
C[C@]12CC[C@H]3[C@@H](CCC4=CC(=O)CC[C@@]43C)[C@@H]1CC[C@@H]2OC(=O)c1ccc(S(N)(=O)=O)nc1 [Compound 5, 3-Oxoandrost-4-en-17β-yl 6′-sulphamoylnicotinate] | – | – | – | 41 | 3.6 | 3200 | –
C[C@]12CC[C@H]3[C@@H](CCC4=CC(=O)CC[C@@]43C)[C@@H]1CC[C@@H]2OC(=O)c1cncc(S(N)(=O)=O)c1 [Compound 6, 3-Oxoandrost-4-en-17β-yl 5′-sulphamoylnicotinate] | – | – | – | 250 | 5.7 | 2900 | –
C[C@]12CC[C@@H]3c4ccc(OS(N)(=O)=O)cc4CC[C@H]3[C@@H]1CC[C@@H]2O [Oestradiol 3-sulphamate, reference compound] | 34 | 157 ± 10.6 | – | – | – | – | About 50
